The target of the first assay is T1, cloned human dopamine D3 receptors (Homo sapiens, UniProt P35462).
T1 construct: expressed in transfected cells; membrane homogenate
T1 sequence (P35462 whole entry): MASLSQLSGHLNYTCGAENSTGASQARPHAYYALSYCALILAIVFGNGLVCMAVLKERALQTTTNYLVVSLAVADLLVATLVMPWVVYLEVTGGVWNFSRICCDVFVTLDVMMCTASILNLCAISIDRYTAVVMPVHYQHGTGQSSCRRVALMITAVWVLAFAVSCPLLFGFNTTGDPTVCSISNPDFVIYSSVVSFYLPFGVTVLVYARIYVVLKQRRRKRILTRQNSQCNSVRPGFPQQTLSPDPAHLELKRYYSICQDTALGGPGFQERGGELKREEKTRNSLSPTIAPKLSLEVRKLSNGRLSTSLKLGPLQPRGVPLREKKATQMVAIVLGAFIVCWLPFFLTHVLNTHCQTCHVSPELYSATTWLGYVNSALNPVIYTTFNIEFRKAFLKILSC
Nature of the assay: [N-Methyl-3H]Spiroperidol binding to cloned human dopamine D3 receptors (Protocol 1). Particulars: Table 2; read-out: D3K1. The method, boiled down:
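Radioligand displacement with [N-methyl-3H]spiroperidol used a physiological-salt Tris buffer (0.05 M, pH 7.7; NaCl 120 mM, KCl 5 mM, CaCl2 2 mM, MgCl2 1 mM) and membranes of a high-expressing stable CHO clone carrying human D3. Total ligand concentration came from measured added CPM; 0.1% ascorbic acid was optional for oxidizable compounds.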
`Nc1ccc(C(=O)NCCCCN2CCCN(c3csc4cc(F)ccc34)CC2)cc1` [compound 817258]: the Ki turned out to be 3.13 nM. Same read-out and setting: in the case of `Nc1cc2ccccc2cc1C(=O)NCCCCN1CCCN(c2csc3cc(F)ccc23)CC1` [compound 817259] it was 2.93 nM; in that of `O=C(NCCCCN1CCCN(c2csc3cc(F)ccc23)CC1)c1ccc2ncccc2c1` [compound 817262], 1.89 nM. In the case of `CN(C)c1ccc(C(=O)c2ccccc2C(=O)NCCCCN2CCCN(c3csc4cc(F)ccc34)CC2)cc1` [compound 817263], the Ki was 331 nM.

Consider `Nc1ccc(O)cc1C(=O)NCCCCN1CCCN(c2csc3cc(F)ccc23)CC1` [compound 817264], for which the Ki was found to be 6.44 nM.

In the case of `NS(=O)(=O)c1cc(C(=O)NCCCCN2CCCN(c3csc4cc(F)ccc34)CC2)c(O)c2ccccc12` [compound 817265], the Ki is 46 nM. For `O=C(NCCCCN1CCCN(c2csc3cc(F)ccc23)CC1)c1cccc2cccnc12` [compound 817266], the Ki came out at 8.73 nM. As to `CCNc1ccccc1C(=O)NCCCCN1CCCN(c2csc3cc(F)ccc23)CC1` [compound 817267], the Ki is 3.03 nM.

Take `CN(C)c1cccc(C(=O)NCCCCN2CCCN(c3csc4cc(F)ccc34)CC2)c1` [compound 817268]: the Ki stood at 7.1 nM.

`CN(C)c1ccccc1C(=O)NCCCCN1CCCN(c2csc3cc(F)ccc23)CC1` [compound 817269]: the Ki is 4.74 nM.

For `CC(C)(C)OC(=O)Cn1c(C(=O)NCCCCN2CCCN(c3csc4cc(F)ccc34)CC2)cc2ccccc21` [compound 817271], the Ki is 326 nM. Turning to `NS(=O)(=O)c1ccc(C(=O)NCCCCN2CCCN(c3csc4cc(F)ccc34)CC2)cc1` [compound 817276], the Ki came to 2.44 nM.

The same assay, now with this note: the 13th table, unit inferred; read-out: D3Ki.
In the case of `O=C(NCCCCN1CCCN(c2csc3cc(F)ccc23)CC1)c1cc2cc(O)ccc2[nH]1` [compound 817270], the Ki came out at 0.448 nM. On to `O=C(NCCCCN1CCCN(c2csc3cc(F)ccc23)CC1)c1cccs1` [compound 822149], for which the Ki turned out to be 2.7 nM.

`O=C(NCCCCN1CCCN(c2csc3cc(F)ccc23)CC1)c1ccc(Cl)cc1` [compound 822150]: the Ki came to 6.3 nM. As to `O=C(NCCCCN1CCCN(c2csc3cc(F)ccc23)CC1)c1cccc2ccccc12` [compound 822153], the Ki is 6.1 nM. Take `O=C(NCCCCN1CCCN(c2csc3cc(F)ccc23)CC1)c1cccc(C(F)(F)F)c1` [compound 822155]: the Ki turned out to be 10.8 nM. In the case of `O=C(NCCCCN1CCCN(c2csc3cc(F)ccc23)CC1)c1ccc2ccccc2c1` [compound 822156], the Ki was 0.67 nM.

Turning to `O=C(NCCCCN1CCCN(c2csc3cc(F)ccc23)CC1)c1cc2ccccc2s1` [compound 822158], the Ki was 1.1 nM. Same read-out and setting: in the case of `O=C(NCCCCN1CCCN(c2csc3cc(F)ccc23)CC1)c1ccccc1F` [compound 822195] it was 4.7 nM. Take `COc1ccc(C(=O)NCCCCN2CCCN(c3csc4cc(F)ccc34)CC2)cc1OC` [compound 822196]: the Ki amounted to 5 nM.

Still in this assay, the particulars now being: the 15th table; read-out: D3 Ki.
As to `O=C(NCCCCN1C2CCC1CC(c1noc3cc(F)ccc13)C2)c1cccc(F)c1F` (stereo not drawn) [compound 816329], the Ki worked out at 356 nM. With `O=C(NCCCCN1C2CCC1CC(c1noc3cc(F)ccc13)C2)c1cccc2ccccc12` (stereo not drawn) [compound 816330], the Ki amounted to 186 nM. For `O=C(NCCCCN1C2CCC1CC(c1noc3cc(F)ccc13)C2)c1ccc(-c2ccccc2)cc1` (stereo not drawn) [compound 816331], the Ki was determined as 44.2 nM. Consider `COc1ccc(C(=O)NCCCCN2C3CCC2CC(c2noc4cc(F)ccc24)C3)cc1OC` (stereo not drawn) [compound 816332], for which the Ki is 588 nM. On to `O=C(NCCCCN1C2CCC1CC(c1noc3cc(F)ccc13)C2)c1ccc(F)cc1` (stereo not drawn) [compound 816333], for which the Ki was found to be 474 nM. Still for that read-out and setting: in the case of `O=C(NCCCCN1C2CCC1CC(c1noc3cc(F)ccc13)C2)c1cc2ccccc2s1` (stereo not drawn) [compound 816334] it was 64.6 nM. With `O=C(NCCCCN1C2CCC1CC(c1noc3cc(F)ccc13)C2)c1ccc(Br)cc1` (stereo not drawn) [compound 816335], the Ki was 268 nM. Turning to `CSc1ncccc1C(=O)NCCCCN1C2CCC1CC(c1noc3cc(F)ccc13)C2` (stereo not drawn) [compound 816338], the Ki amounted to 692 nM. Consider `O=C(NCCCCN1C2CCC1CC(c1noc3cc(F)ccc13)C2)c1ccccc1C(F)(F)F` (stereo not drawn) [compound 816340], for which the Ki came to 427 nM. On to `CCCc1ccc(C(=O)NCCCCN2C3CCC2CC(c2noc4cc(F)ccc24)C3)cc1` (stereo not drawn) [compound 816341], for which the Ki turned out to be 50.9 nM.

For `COc1ccccc1C(=O)NCCCCN1C2CCC1CC(c1noc3cc(F)ccc13)C2` (stereo not drawn) [compound 816343], the Ki was found to be 344 nM. On the same count and under the same terms, the result for `Cc1ccc(C(=O)NCCCCN2C3CCC2CC(c2noc4cc(F)ccc24)C3)cc1` (stereo not drawn) [compound 816344] reads 378 nM; that for `CCCCCCc1ccc(C(=O)NCCCCN2C3CCC2CC(c2noc4cc(F)ccc24)C3)cc1` (stereo not drawn) [compound 816345], 95.6 nM; that for `O=C(NCCCCN1C2CCC1CC(c1noc3ccccc13)C2)c1cccs1` (stereo not drawn) [compound 816519], 305 nM. For the molecule `O=C(NCCCCN1C2CCC1CC(c1noc3ccccc13)C2)c1ccc(F)cc1` (stereo not drawn) [compound 816520], the Ki turned out to be 292 nM. As for `O=C(Cc1cccs1)NCCCCN1C2CCC1CC(c1noc3ccccc13)C2` (stereo not drawn) [compound 816521], the Ki is 328 nM.

With `O=C(NCCCCN1C2CCC1CC(c1noc3ccccc13)C2)c1ccccc1C(F)(F)F` (stereo not drawn) [compound 816522], the Ki turned out to be 240 nM.

Turning to `O=C(NCCCCN1C2CCC1CC(c1noc3ccccc13)C2)c1ccc(Cl)cc1` (stereo not drawn) [compound 816523], the Ki was 165 nM. As to `O=C(NCCCCN1C2CCC1CC(c1noc3ccccc13)C2)C1CCCCC1` (stereo not drawn) [compound 816524], the Ki was found to be 357 nM. Same read-out and setting: in the case of `COc1ccccc1C(=O)NCCCCN1C2CCC1CC(c1noc3ccccc13)C2` (stereo not drawn) [compound 816525] it was 148 nM. For `Cc1ccc(C(=O)NCCCCN2C3CCC2CC(c2noc4ccccc24)C3)cc1` (stereo not drawn) [compound 816526], the Ki came to 375 nM. Take `CCCCCCc1ccc(C(=O)NCCCCN2C3CCC2CC(c2noc4ccccc24)C3)cc1` (stereo not drawn) [compound 816527]: the Ki was found to be 64.8 nM. On the same count and under the same terms, the result for `O=C(NCCCCN1C2CCC1CC(c1noc3ccccc13)C2)c1ccccc1` (stereo not drawn) [compound 816528] reads 299 nM. Still for that read-out and setting: in the case of `CCCCOc1ccc(C(=O)NCCCCN2C3CCC2CC(c2noc4ccccc24)C3)cc1` (stereo not drawn) [compound 816529] it was 42.5 nM.

Take `O=C(NCCCCN1C2CCC1CC(c1noc3ccccc13)C2)c1ccc(C(F)(F)F)cc1` (stereo not drawn) [compound 816530]: the Ki came out at 110 nM. For the molecule `Cc1ccccc1C(=O)NCCCCN1C2CCC1CC(c1noc3ccccc13)C2` (stereo not drawn) [compound 816531], the Ki stood at 299 nM. As for `O=C(NCCCCN1C2CCC1CC(c1noc3ccccc13)C2)c1ccc(-c2ccccc2)cc1` (stereo not drawn) [compound 816532], the Ki came out at 56.8 nM.

For the molecule `COc1ccc(C(=O)NCCCCN2C3CCC2CC(c2noc4ccccc24)C3)cc1` (stereo not drawn) [compound 816534], the Ki was 149 nM. As for `O=C(NCCCCN1C2CCC1CC(c1noc3ccccc13)C2)c1cc2ccccc2s1` (stereo not drawn) [compound 816535], the Ki was found to be 66.4 nM. Turning to `O=C(NCCCCN1C2CCC1CC(c1noc3ccccc13)C2)c1ccc(Br)cc1` (stereo not drawn) [compound 816536], the Ki came out at 140 nM. Take `O=C(NCCCCN1C2CCC1CC(c1noc3ccccc13)C2)c1ccccc1[N+](=O)[O-]` (stereo not drawn) [compound 816537]: the Ki was 411 nM.

With `O=C(NCCCCN1C2CCC1CC(c1noc3ccccc13)C2)c1cccc2ccccc12` (stereo not drawn) [compound 816538], the Ki was found to be 178 nM. Same read-out and setting: the result for `O=C(NCCCCN1C2CCC1CC(c1noc3ccccc13)C2)c1cccc(F)c1F` (stereo not drawn) [compound 816540] reads 225 nM.

Consider `CSc1ncccc1C(=O)NCCCCN1C2CCC1CC(c1noc3ccccc13)C2` (stereo not drawn) [compound 816541], for which the Ki turned out to be 511 nM.

Still in this assay, the particulars now being: the 16th table; read-out: D3 Ki.
With `Nc1ccc(C(=O)NCCCCN2CCCN(c3csc4cc(F)ccc34)CC2)cc1` [compound 817258], the Ki was determined as 3.13 nM. For the molecule `Nc1cc2ccccc2cc1C(=O)NCCCCN1CCCN(c2csc3cc(F)ccc23)CC1` [compound 817259], the Ki is 2.93 nM. For the molecule `O=C(NCCCCN1CCCN(c2csc3cc(F)ccc23)CC1)c1ccc2ncccc2c1` [compound 817262], the Ki worked out at 1.89 nM.

`CN(C)c1ccc(C(=O)c2ccccc2C(=O)NCCCCN2CCCN(c3csc4cc(F)ccc34)CC2)cc1` [compound 817263]: the Ki worked out at 331 nM. On to `Nc1ccc(O)cc1C(=O)NCCCCN1CCCN(c2csc3cc(F)ccc23)CC1` [compound 817264], for which the Ki stood at 6.44 nM. Still for that read-out and setting: the result for `NS(=O)(=O)c1cc(C(=O)NCCCCN2CCCN(c3csc4cc(F)ccc34)CC2)c(O)c2ccccc12` [compound 817265] reads 46 nM.

As to `O=C(NCCCCN1CCCN(c2csc3cc(F)ccc23)CC1)c1cccc2cccnc12` [compound 817266], the Ki was determined as 8.73 nM. `CCNc1ccccc1C(=O)NCCCCN1CCCN(c2csc3cc(F)ccc23)CC1` [compound 817267]: the Ki is 3.03 nM.

On to `CN(C)c1cccc(C(=O)NCCCCN2CCCN(c3csc4cc(F)ccc34)CC2)c1` [compound 817268], for which the Ki was determined as 7.1 nM.

As for `CN(C)c1ccccc1C(=O)NCCCCN1CCCN(c2csc3cc(F)ccc23)CC1` [compound 817269], the Ki came out at 4.74 nM. Still for that read-out and setting: in the case of `CC(C)(C)OC(=O)Cn1c(C(=O)NCCCCN2CCCN(c3csc4cc(F)ccc34)CC2)cc2ccccc21` [compound 817271] it was 326 nM; in that of `NS(=O)(=O)c1ccc(C(=O)NCCCCN2CCCN(c3csc4cc(F)ccc34)CC2)cc1` [compound 817276], 2.44 nM.

The same assay, now with this note: the 19th table; read-out: D3 Ki.
With `O=C(Nc1cccc(CN2CCN(c3csc4cc(F)ccc34)CC2)c1)c1cccs1` [compound 822159], the Ki is 96.7 nM. Turning to `COc1cc(OC)cc(C(=O)Nc2cccc(CN3CCN(c4csc5cc(F)ccc45)CC3)c2)c1` [compound 822161], the Ki was 163 nM.

With `O=C(Nc1cccc(CN2CCN(c3csc4cc(F)ccc34)CC2)c1)c1ccc(OC(F)(F)F)cc1` [compound 822162], the Ki amounted to 380 nM. On the same count and under the same terms, the result for `O=C(Nc1cccc(CN2CCN(c3csc4cc(F)ccc34)CC2)c1)c1cccc(F)c1` [compound 822164] reads 167 nM. The same measure, in the same setting: the result for `COc1ccc(C(=O)Nc2cccc(CN3CCN(c4csc5cc(F)ccc45)CC3)c2)cc1OC` [compound 822180] reads 26.5 nM. On to `COc1cccc(C(=O)Nc2cccc(CN3CCN(c4csc5cc(F)ccc45)CC3)c2)c1` [compound 822181], for which the Ki amounted to 332 nM. With `Cc1ccccc1C(=O)Nc1cccc(CN2CCN(c3csc4cc(F)ccc34)CC2)c1` [compound 822183], the Ki was found to be 154 nM. For the molecule `O=C(Nc1cccc(CN2CCN(c3csc4cc(F)ccc34)CC2)c1)c1cnc2ccccc2n1` [compound 822184], the Ki stood at 271 nM. Same read-out and setting: the result for `O=C(Nc1cccc(CN2CCN(c3csc4cc(F)ccc34)CC2)c1)c1ccncc1` [compound 822185] reads 50.7 nM. Take `O=C(Nc1cccc(CN2CCN(c3csc4cc(F)ccc34)CC2)c1)c1cccnc1Cl` [compound 822186]: the Ki amounted to 50.4 nM. In the case of `COc1ccc(C(=O)NCc2ccccc2CN2CCN(c3csc4cc(F)ccc34)CC2)cc1OC` [compound 822188], the Ki was 140 nM.

Source of the values: US7550469B2, “Heterocyclic amide derivatives and their use as dopamine D3 receptor ligands” (Aventis Pharmaceuticals Inc., priority 2001, dated 2009).
